Experimental data as given in ChEMBL document CHEMBL3879908, “Pyrrolidinone carboxamide derivatives” (2014).

molecular target: T1, Chemerin-like receptor 1 (Homo sapiens, UniProt Q99788); test: Displacement of [125I]-chemerin from ChemR23 (unknown origin) transfected in mouse BaF3 cells after 3 hrs by scintillation counting method; assay type: cell-based
T1 sequence (Q99788 whole entry): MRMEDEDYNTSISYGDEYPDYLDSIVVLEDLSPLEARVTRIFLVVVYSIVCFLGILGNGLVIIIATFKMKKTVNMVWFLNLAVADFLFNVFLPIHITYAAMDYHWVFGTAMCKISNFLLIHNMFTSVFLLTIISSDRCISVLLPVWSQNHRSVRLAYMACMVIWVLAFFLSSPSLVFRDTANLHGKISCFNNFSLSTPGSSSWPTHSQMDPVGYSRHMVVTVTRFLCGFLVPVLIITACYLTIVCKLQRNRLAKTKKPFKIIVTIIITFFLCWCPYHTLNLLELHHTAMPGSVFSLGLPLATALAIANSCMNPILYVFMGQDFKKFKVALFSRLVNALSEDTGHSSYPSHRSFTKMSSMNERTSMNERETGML

Row | IC50 [µM] | Compound
1 | ≤ 0.03 | Cc1cccc(C)c1N1C[C@]2(C(=O)Nc3cc(C(F)(F)F)cc(C(F)(F)F)c3)CC[C@@H]2C1=O
2 | 0.03 to 0.3 | Cc1cccc(C)c1N1CC(C(=O)Nc2cc(C#N)cc(C(F)(F)F)c2)CC1=O (centres undefined)
3 | 0.3 to 6 | Cc1cccc(C)c1N1C[C@]2(C(=O)Nc3cc(C(F)(F)F)cc(C(F)(F)F)c3)CC=CC[C@@H]2C1=O
4 | ≤ 0.03 | CCc1cccc(C)c1N1CC(C(=O)Nc2cc(C(F)(F)F)cc(C(F)(F)F)c2)CC1=O (centres undefined)
5 | 0.3 to 6 | Cc1cccc(C)c1N1CC(C(=O)Nc2cccc(C#N)c2)CC1=O (centres undefined)
6 | ≤ 0.03 | Cc1cccc(C)c1N1CC(C(=O)Nc2cc(C(F)(F)F)cc(C(F)(F)F)c2)(N(C)C)CC1=O (centres undefined)
7 | 0.3 to 6 | Cc1cccc(C)c1N1CC(C(=O)Nc2ccc(Cl)c(C(F)(F)F)c2)CC1=O (centres undefined)
8 | ≤ 0.03 | C=CCc1cccc(C)c1N1CC(C(=O)Nc2cc(C(F)(F)F)cc(C(F)(F)F)c2)(C(C)C)CC1=O (centres undefined)
9 | 0.3 to 6 | Cc1cccc(C)c1N1CC(CN2CCCC2)(C(=O)Nc2cc(C(F)(F)F)cc(C(F)(F)F)c2)CC1=O (centres undefined)
10 | 0.03 to 0.3 | Cc1cccc(C)c1N1CC(C(=O)Nc2cc(N3CCOCC3)cc(C(F)(F)F)c2)CC1=O (centres undefined)
11 | 0.03 to 0.3 | COc1cccc(C)c1N1CC(C(=O)Nc2cc(F)cc(F)c2)CC1=O (centres undefined)
12 | 0.3 to 6 | Cc1cccc(C)c1N1CC2(C(=O)Nc3cc(C(F)(F)F)cc(C(F)(F)F)c3)COCCC2C1=O (centres undefined)
13 | 0.3 to 6 | Cc1cccc(C)c1N1CC2(C(=O)Nc3cc(C(F)(F)F)cc(C(F)(F)F)c3)CC2C1=O (centres undefined)
14 | 0.03 to 0.3 | Cc1cccc(C)c1N1CC(C(=O)Nc2cc(N3CCCCC3)cc(C(F)(F)F)c2)CC1=O (centres undefined)
15 | 0.3 to 6 | CC[C@@]1(C(=O)Nc2cc(CN3CCOCC3)cc(C(F)(F)F)c2)CN(c2c(C)cccc2C)C(=O)[C@H]1C
16 | 0.03 to 0.3 | COC(=O)c1cc(NC(=O)C2CC(=O)N(c3c(C)cccc3C)C2)cc(C(F)(F)F)c1 (centres undefined)
17 | 0.3 to 6 | Cc1cccc(C)c1N1CC(C(=O)Nc2cc(C3CC3)cc(C(F)(F)F)c2)CC1=O (centres undefined)
18 | 0.3 to 6 | Cc1cccc(CCN2CCCC2)c1N1CC(C(=O)Nc2cc(C(F)(F)F)cc(C(F)(F)F)c2)(C(C)C)CC1=O (centres undefined)
19 | 0.3 to 6 | Cc1cccc(C)c1N1C[C@@](CN2CCCCC2)(C(=O)Nc2cc(C(F)(F)F)cc(C(F)(F)F)c2)[C@H](C)C1=O
20 | 0.03 to 0.3 | Cc1cccc(C)c1N1CC2(C(=O)Nc3cc(C(F)(F)F)cc(C(F)(F)F)c3)COCC2C1=O (centres undefined)
21 | ≤ 0.03 | CO[C@H]1CC2C(=O)N(c3c(C)cccc3C)CC2(C(=O)Nc2cc(C(F)(F)F)cc(C(F)(F)F)c2)C1 (some centres undefined)

Row | IC50 [µM] | Compound
22 | 0.03 to 0.3 | Cc1cccc(Cl)c1N1CC(C(=O)Nc2cc(C(F)(F)F)cc(C(F)(F)F)c2)CC1=O (centres undefined)
23 | 0.03 to 0.3 | Cc1cc(F)cc(C)c1N1CC(C(=O)Nc2cc(C(F)(F)F)cc(C(F)(F)F)c2)CC1=O (centres undefined)
24 | 0.3 to 6 | COCCOc1cc(NC(=O)C2(C(C)C)CC(=O)N(c3c(C)cccc3Br)C2)cc(C(F)(F)F)c1 (centres undefined)
25 | 0.3 to 6 | COc1cccc(C)c1N1CC(C(=O)Nc2cc(C(F)(F)F)cc(C(F)(F)F)c2)(C(C)C)CC1=O (centres undefined)
26 | ≤ 0.03 | Cc1cccc(C)c1N1CC2(C(=O)Nc3cc(C(F)(F)F)cc(C(F)(F)F)c3)CCCC2C1=O (centres undefined)
27 | 0.03 to 0.3 | Cc1cccc(C)c1N1CC2(C(=O)Nc3cc(C(F)(F)F)cc(C(F)(F)F)c3)C[C@@H](F)CC2C1=O (some centres undefined)
28 | 0.03 to 0.3 | Cc1ccc(C)c(N2CC(C(=O)Nc3cc(C(F)(F)F)cc(C(F)(F)F)c3)CC2=O)c1 (centres undefined)
29 | 0.3 to 6 | CCc1cccc(C)c1N1CC(C(=O)Nc2ccc(C(F)(F)F)cc2)CC1=O (centres undefined)
30 | 0.03 to 0.3 | Cc1cccc(C)c1N1CC(C(=O)Nc2cc(Cl)cc(C(F)(F)F)c2)CC1=O (centres undefined)
31 | 0.3 to 6 | CCc1cccc(C)c1N1CC(C(=O)Nc2ccc(OC)c(C(F)(F)F)c2)CC1=O (centres undefined)
32 | 0.3 to 6 | O=C(Nc1cc(C(F)(F)F)cc(C(F)(F)F)c1)C1CC(=O)N(c2ccccc2)C1 (centres undefined)
33 | 0.03 to 0.3 | Cc1ccc(N2CC(C(=O)Nc3cc(C(F)(F)F)cc(C(F)(F)F)c3)CC2=O)c(C)c1 (centres undefined)
34 | ≤ 0.03 | Cc1cccc(C)c1N1CC(C(=O)Nc2cc(C(F)(F)F)cc(C(F)(F)F)c2)CC1=O (centres undefined)
35 | ≤ 0.03 | CNC1(C(=O)Nc2cc(C(F)(F)F)cc(C(F)(F)F)c2)CC(=O)N(c2c(C)cccc2C)C1 (centres undefined)
36 | 0.3 to 6 | CCc1cccc(C)c1N1CC(C(=O)Nc2ccc(C)c(C(F)(F)F)c2)CC1=O (centres undefined)
37 | 0.3 to 6 | Cc1cccc(C)c1N1CC(C(=O)Nc2cc(F)cc(F)c2)CC1=O (centres undefined)
38 | ≤ 0.03 | Cc1cccc(C)c1N1CC(NC(C)C)(C(=O)Nc2cc(C(F)(F)F)cc(C(F)(F)F)c2)CC1=O (centres undefined)
39 | 0.3 to 6 | Cc1cccc(C)c1N1C[C@@](CN2CCCC2)(C(=O)Nc2cc(C(F)(F)F)cc(C(F)(F)F)c2)[C@H](C)C1=O
40 | 0.03 to 0.3 | Cc1cccc(F)c1N1CC(C(=O)Nc2cc(C(F)(F)F)cc(C(F)(F)F)c2)(C(C)C)CC1=O (centres undefined)
41 | 0.3 to 6 | Cc1cccc(C)c1N1CC(C(=O)Nc2cc(Cl)cc(C#N)c2)CC1=O (centres undefined)
42 | 0.3 to 6 | Cc1cccc(C)c1N1CC(C(=O)Nc2cccc(Cl)c2)CC1=O (centres undefined)

Row | IC50 [µM] | Compound
43 | 0.3 to 6 | Cc1cccc(S(C)(=O)=O)c1N1CC(C(=O)Nc2cc(C(F)(F)F)cc(C(F)(F)F)c2)CC1=O (centres undefined)
44 | 0.3 to 6 | CCc1cccc(C)c1N1CC(C(=O)Nc2cccc(Cl)c2)CC1=O (centres undefined)
45 | 0.03 to 0.3 | Cc1cccc(C)c1N1C[C@]2(C(=O)Nc3cc(C(F)(F)F)cc(C(F)(F)F)c3)OCC[C@@H]2C1=O
46 | 0.03 to 0.3 | Cc1ccccc1N1CC(C(=O)Nc2cc(C(F)(F)F)cc(C(F)(F)F)c2)CC1=O (centres undefined)
47 | ≤ 0.03 | Cc1cccc(C)c1N1C[C@@](C)(C(=O)Nc2cc(Cl)cc(Cl)c2)[C@H](C)C1=O
48 | ≤ 0.03 | Cc1cccc(C)c1N1CC2(C(=O)Nc3cc(C(F)(F)F)cc(C(F)(F)F)c3)CC=CCC2C1=O (centres undefined)
49 | 0.3 to 6 | Cc1cccc(Br)c1N1CC(C(=O)Nc2cccc(C(F)(F)F)c2)CC1=O (centres undefined)
50 | 0.3 to 6 | Cc1cccc(C)c1N1CC(C(=O)Nc2cccc(C(F)(F)F)c2)CC1=O (centres undefined)
51 | 0.03 to 0.3 | CC[C@@]1(C(=O)Nc2ccc(C)c(C(F)(F)F)c2)CN(c2c(C)cccc2C)C(=O)[C@H]1C
52 | 0.03 to 0.3 | Cc1cccc(C)c1N1CC(C(=O)Nc2cc(N3CCCC3)cc(C(F)(F)F)c2)CC1=O (centres undefined)
53 | 0.3 to 6 | CCN(CC)C[C@@]1(C(=O)Nc2cc(C(F)(F)F)cc(C(F)(F)F)c2)CN(c2c(C)cccc2C)C(=O)[C@H]1C
54 | 0.3 to 6 | CCc1cccc(C)c1N1CC(C(=O)Nc2ccc(F)c(C(F)(F)F)c2)CC1=O (centres undefined)
55 | ≤ 0.03 | Cc1cccc(C)c1N1C[C@]2(C(=O)Nc3cc(C(F)(F)F)cc(C(F)(F)F)c3)CCO[C@@H]2C1=O
56 | 0.03 to 0.3 | Cc1cccc(C)c1N1CC(C(=O)Nc2cc(Cl)cc(Cl)c2)CC1=O (centres undefined)
57 | 0.3 to 6 | Cc1cccc(C)c1N1CC(C(=O)Nc2cc(C(F)(F)F)cc(C(F)(F)F)c2)(C2CCNC2)CC1=O (centres undefined)
58 | 0.3 to 6 | CCc1cccc(C)c1N1CC(C(=O)Nc2cccc(C(F)(F)F)c2)CC1=O (centres undefined)
59 | 0.03 to 0.3 | CC(C)c1ccccc1N1CC(C(=O)Nc2cc(C(F)(F)F)cc(C(F)(F)F)c2)CC1=O (centres undefined)
60 | 0.3 to 6 | CCc1cccc(NC(=O)C2CC(=O)N(c3c(C)cccc3C)C2)c1 (centres undefined)
61 | 0.03 to 0.3 | Cc1cccc(C)c1N1CC2(C(=O)Nc3cc(C(F)(F)F)cc(C(F)(F)F)c3)CCCCC2C1=O (centres undefined)
62 | 0.3 to 6 | Cc1cccc(F)c1N1CC(C(=O)Nc2cccc(Cl)c2)CC1=O (centres undefined)
63 | 0.03 to 0.3 | Cc1cccc(C)c1N1CC2(C(=O)Nc3cc(C(F)(F)F)cc(C(F)(F)F)c3)CC(N3CCCC3)CC2C1=O (centres undefined)

Row | IC50 [µM] | Compound
64 | ≤ 0.03 | Cc1cccc(C2CC2)c1N1CC(C(=O)Nc2cc(C(F)(F)F)cc(C(F)(F)F)c2)CC1=O (centres undefined)
65 | 0.3 to 6 | CCOCc1cccc(C)c1N1CC(C(=O)Nc2cc(C(F)(F)F)cc(C(F)(F)F)c2)(C(C)C)CC1=O (centres undefined)
66 | 0.03 to 0.3 | CC[C@@]1(C(=O)Nc2cc(Cl)cc(C#N)c2)CN(c2c(C)cccc2C)C(=O)[C@H]1C
67 | 0.03 to 0.3 | CCc1ccccc1N1CC(C(=O)Nc2cc(C(F)(F)F)cc(C(F)(F)F)c2)CC1=O (centres undefined)
68 | ≤ 0.03 | CO[C@@H]1CC2C(=O)N(c3c(C)cccc3C)CC2(C(=O)Nc2cc(C(F)(F)F)cc(C(F)(F)F)c2)C1 (some centres undefined)
69 | ≤ 0.03 | Cc1cccc(C)c1N1CC2(C(=O)Nc3cc(C(F)(F)F)cc(C(F)(F)F)c3)COC=CC2C1=O (centres undefined)
70 | 0.3 to 6 | Cc1cccc(C)c1N1C[C@@](CN2CCOCC2)(C(=O)Nc2cc(C(F)(F)F)cc(C(F)(F)F)c2)[C@H](C)C1=O
71 | 0.3 to 6 | Cc1cccc(C)c1N1CC(C(=O)Nc2ccc(Cl)c(Cl)c2)CC1=O (centres undefined)
72 | 0.03 to 0.3 | Cc1cccc(CO)c1N1CC(C(=O)Nc2cc(C(F)(F)F)cc(C(F)(F)F)c2)(C(C)C)CC1=O (centres undefined)
73 | ≤ 0.03 | Cc1cccc(C)c1N1CC(C(=O)Nc2cc(C(F)(F)F)cc(C(F)(F)F)c2)(N2CCOCC2)CC1=O (centres undefined)
74 | 0.03 to 0.3 | COc1cc(NC(=O)C2CC(=O)N(c3c(C)cccc3C)C2)cc(C(F)(F)F)c1 (centres undefined)
75 | 0.3 to 6 | Cc1cccc(CCN2CCOCC2)c1N1CC(C(=O)Nc2cc(C(F)(F)F)cc(C(F)(F)F)c2)(C(C)C)CC1=O (centres undefined)
76 | 0.3 to 6 | Cc1ccccc1N1CC(C(=O)Nc2cccc(C(F)(F)F)c2)CC1=O (centres undefined)
77 | ≤ 0.03 | Cc1cccc(C)c1N1CC2(C(=O)Nc3cc(C(F)(F)F)cc(C(F)(F)F)c3)C[C@H](F)CC2C1=O (some centres undefined)
78 | 0.3 to 6 | Cc1cccc(CCO)c1N1CC(C(=O)Nc2cc(C(F)(F)F)cc(C(F)(F)F)c2)(C(C)C)CC1=O (centres undefined)
79 | 0.3 to 6 | Cc1cccc(C)c1N1CC(C(=O)Nc2ccc(Cl)cc2Cl)CC1=O (centres undefined)
80 | ≤ 0.03 | Cc1cccc(C)c1N1CC(C(=O)Nc2cc(C(F)(F)F)cc(C(F)(F)F)c2)(N2CCCC2)CC1=O (centres undefined)
81 | 0.03 to 0.3 | Cc1cccc(C)c1N1CC2(C(=O)Nc3cc(C(F)(F)F)cc(C(F)(F)F)c3)CC(O)CC2C1=O (centres undefined)
82 | 0.03 to 0.3 | C=CCc1ccccc1N1CC(C(=O)Nc2cc(C(F)(F)F)cc(C(F)(F)F)c2)(C(C)C)CC1=O (centres undefined)
83 | ≤ 0.03 | Cc1cccc(C)c1N1CC2(C(=O)Nc3cc(C(F)(F)F)cc(C(F)(F)F)c3)CC(F)(F)CC2C1=O (centres undefined)
84 | 0.03 to 0.3 | Cc1cccc(N2CC(C(=O)Nc3cc(C(F)(F)F)cc(C(F)(F)F)c3)CC2=O)c1C (centres undefined)
